{
  "source": "patent US20150086530A1",
  "about": "“DOSING REGIMENS FOR THE TREATMENT OF POMPE DISEASE” (Amicus Therapeutics, Inc., priority 2012, published 2015)",
  "key": {"GAA [1]": {"tested_on": "GAA", "assay": "rhGAA activity in WBC (PBMCs) of Pompe patients", "type": "in vivo, human", "description": "GAA activity in WBCs will be determined in blood samples by a validated assay measuring enzyme activity using 4-MUG, with and without Con A. GAA protein levels will be measured by Western blotting using anti-human GAA antibody."}, "[2]": {"assay": "Thigh muscle MRI before and after ERT", "type": "in vivo", "conditions": "at one year of ERT"}, "[3]": {"conditions": "Banati et al. 2011, cited from earlier work"}, "[4]": {"assay": "Plasma and tissue distribution of 1-DNJ and N-butyl-DNJ in wild type C57BL/6 mice", "conditions": "mouse, in vivo, oral 100 mg/kg", "experimental": "Eight-week old wild type C57BL/6 mice where administered an oral dose of 100 mg/kg of 1-DNJ or N-butyl-DNJ. […] The concentration of drug in plasma is expressed as ng/ml. The concentration of drug in tissue samples is expressed as ng/g."}, "[5]": {"tested_on": "T cells derived from blood from 50 healthy donors", "assay": "Ex vivo T cell immunogenicity (EpiScreen assay)", "type": "cell-based, human", "conditions": "T cells from 50 healthy donors, addition of AT2220", "description": "By stabilizing the folded and active form of the rhGAA enzyme, AT2220 may mitigate ERT-induced immunogenicity since unfolded and aggregated proteins are generally more antigenic than properly folded proteins. […] The studies utilized Antitope Ltd.'s EpiScreen™ assay and are being repeated in samples from the Pompe patients in the study described by Examples 1-3."}, "[6]": {"assay": "Cmax following 30 mg/kg oral AT2220 or AT2221 in mice", "type": "in vivo", "conditions": "mouse, plasma"}, "GAA [7]": {"molecular_target": "T1, GAA (Homo sapiens, UniProt P10253)", "assay": "Physical stability of rhGAA in neutral pH buffer (thermal denaturation, enzymatic activity)", "type": "biochemical", "set-up": "purchased Genzyme Corporation", "conditions": "thermal denaturation and enzymatic activity"}, "GAA [8]": {"molecular_target": "T1, GAA", "assay": "Tissue GAA levels (activity, Western blot) in mice after rhGAA with 1-deoxynojirimycin hydrochloride", "type": "in vivo, mouse", "set-up": "from tissue; host or cells: heart, diaphragm, quadriceps, gastrocnemius, triceps and tongue of GAA knock-out mice injected with rhGAA", "conditions": "GAA knock-out mice; 10, 100 or 1000 mg/kg PO 30 min before and 8, 16, 24 h after bolus IV rhGAA 10 mg/kg weekly; 2, 4, 7 days post-administration", "description": "The effect of a single oral administration of 1-deoxynojirimycin hydrochloride on rhGAA tissue uptake was studied in GAA knock-out mice."}, "[9]": {"conditions": "Cohort 1 (50 mg AT2220 in Period 2), Day 2, arithmetic mean, N 4"}, "[10]": {"conditions": "Cohort 1 (50 mg AT2220 in Period 2), Day 7, arithmetic mean, N 4"}, "[11]": {"conditions": "Cohort 1 (50 mg AT2220 in Period 2), Time 0, arithmetic mean, N 4"}, "[12]": {"conditions": "Cohort 1 (50 mg AT2220 in Period 2), Time 4 h, arithmetic mean, N 4"}, "[13]": {"conditions": "Cohort 2 (100 mg AT2220 in Period 2), Day 2, arithmetic mean, N 6"}, "[14]": {"conditions": "Cohort 2 (100 mg AT2220 in Period 2), Day 3, arithmetic mean, N 3"}, "[15]": {"conditions": "Cohort 2 (100 mg AT2220 in Period 2), Day 7, arithmetic mean, N 3"}, "[16]": {"conditions": "Cohort 2 (100 mg AT2220 in Period 2), Time 0, arithmetic mean, N 6"}, "[17]": {"conditions": "Cohort 2 (100 mg AT2220 in Period 2), Time 4 h, arithmetic mean, N 6"}, "[18]": {"conditions": "Cohort 3 (250 mg AT2220 in Period 2), Day 2, arithmetic mean, N 6"}, "[19]": {"conditions": "Cohort 3 (250 mg AT2220 in Period 2), Day 3, arithmetic mean, N 3"}, "[20]": {"conditions": "Cohort 3 (250 mg AT2220 in Period 2), Day 7, arithmetic mean, N 3"}, "[21]": {"conditions": "Cohort 3 (250 mg AT2220 in Period 2), Time 0, arithmetic mean, N 6"}, "[22]": {"conditions": "Cohort 3 (250 mg AT2220 in Period 2), Time 4 h, arithmetic mean, N 6"}},
  "data": [
    {"compound": "rhGAA: human recombinant acid α-glucosidase; alglucosidase alfa (Myozyme/Lumizyme) enzyme replacement therapy given by intravenous infusion", "values": [
      {"measurement": "rhGAA Activity in PBMCs, % Change from Period 1", "setting": "GAA [1]; [9]", "value": "−13.9", "unit": "%"},
      {"measurement": "rhGAA Activity in PBMCs, Period 2/Period 1 Ratio", "setting": "GAA [1]; [9]", "value": 0.9},
      {"measurement": "rhGAA Activity in PBMCs, % Change from Period 1", "setting": "GAA [1]; [10]", "value": 4.1, "unit": "%"},
      {"measurement": "rhGAA Activity in PBMCs, Period 2/Period 1 Ratio", "setting": "GAA [1]; [10]", "value": 1.0},
      {"measurement": "rhGAA Activity in PBMCs, % Change from Period 1", "setting": "GAA [1]; [11]", "value": 157, "unit": "%"},
      {"measurement": "rhGAA Activity in PBMCs, Period 2/Period 1 Ratio", "setting": "GAA [1]; [11]", "value": 2.6},
      {"measurement": "rhGAA Activity in PBMCs, % Change from Period 1", "setting": "GAA [1]; [12]", "value": "−17.5", "unit": "%"},
      {"measurement": "rhGAA Activity in PBMCs, Period 2/Period 1 Ratio", "setting": "GAA [1]; [12]", "value": 0.8},
      {"measurement": "rhGAA Activity in PBMCs, % Change from Period 1", "setting": "GAA [1]; [13]", "value": 81.0, "unit": "%"},
      {"measurement": "rhGAA Activity in PBMCs, Period 2/Period 1 Ratio", "setting": "GAA [1]; [13]", "value": 1.8},
      {"measurement": "rhGAA Activity in PBMCs, % Change from Period 1", "setting": "GAA [1]; [14]", "value": "−36.7", "unit": "%"},
      {"measurement": "rhGAA Activity in PBMCs, Period 2/Period 1 Ratio", "setting": "GAA [1]; [14]", "value": 0.6},
      {"measurement": "rhGAA Activity in PBMCs, % Change from Period 1", "setting": "GAA [1]; [15]", "value": "−5.9", "unit": "%"},
      {"measurement": "rhGAA Activity in PBMCs, Period 2/Period 1 Ratio", "setting": "GAA [1]; [15]", "value": 0.9},
      {"measurement": "rhGAA Activity in PBMCs, % Change from Period 1", "setting": "GAA [1]; [16]", "value": "−12.4", "unit": "%"},
      {"measurement": "rhGAA Activity in PBMCs, Period 2/Period 1 Ratio", "setting": "GAA [1]; [16]", "value": 0.9},
      {"measurement": "rhGAA Activity in PBMCs, % Change from Period 1", "setting": "GAA [1]; [17]", "value": "−8.4", "unit": "%"},
      {"measurement": "rhGAA Activity in PBMCs, Period 2/Period 1 Ratio", "setting": "GAA [1]; [17]", "value": 0.9},
      {"measurement": "rhGAA Activity in PBMCs, % Change from Period 1", "setting": "GAA [1]; [18]", "value": 47.5, "unit": "%"},
      {"measurement": "rhGAA Activity in PBMCs, Period 2/Period 1 Ratio", "setting": "GAA [1]; [18]", "value": 1.5},
      {"measurement": "rhGAA Activity in PBMCs, % Change from Period 1", "setting": "GAA [1]; [19]", "value": 240, "unit": "%"},
      {"measurement": "rhGAA Activity in PBMCs, Period 2/Period 1 Ratio", "setting": "GAA [1]; [19]", "value": 3.4},
      {"measurement": "rhGAA Activity in PBMCs, % Change from Period 1", "setting": "GAA [1]; [20]", "value": 49.0, "unit": "%"},
      {"measurement": "rhGAA Activity in PBMCs, Period 2/Period 1 Ratio", "setting": "GAA [1]; [20]", "value": 1.5},
      {"measurement": "rhGAA Activity in PBMCs, % Change from Period 1", "setting": "GAA [1]; [21]", "value": 107, "unit": "%"},
      {"measurement": "rhGAA Activity in PBMCs, Period 2/Period 1 Ratio", "setting": "GAA [1]; [21]", "value": 2.1},
      {"measurement": "rhGAA Activity in PBMCs, % Change from Period 1", "setting": "GAA [1]; [22]", "value": 1028, "unit": "%"},
      {"measurement": "rhGAA Activity in PBMCs, Period 2/Period 1 Ratio", "setting": "GAA [1]; [22]", "value": 11.3},
      {"measurement": "decrease in muscle mass in posterior thigh", "setting": "[2]", "value": 11, "unit": "%"},
      {"measurement": "decrease in muscle mass in the anterior thigh", "setting": "[2]", "value": 9.8, "unit": "%"},
      {"measurement": "increase in intramuscular fat accumulation", "setting": "[2]", "value": 8.9, "unit": "%"},
      {"measurement": "subcutaneous fat", "setting": "[2]", "value": 6.6, "unit": "%"},
      {"measurement": "administered ERT captured by circulating antibodies", "setting": "[3]", "value": "approximately 40%"},
      {"measurement": "Pompe patients with infusion associated reactions", "setting": "[3]; patients receiving ERT infusions", "value": "approximately 50%"}
    ]},
    {"compound": "OC[C@H]1NC[C@H](O)[C@@H](O)[C@@H]1O", "note": "[AT2220, (2R,3R,4R,5S)-2-hydroxymethyl-piperidine-3,4,5-triol]", "values": [
      {"measurement": "Cmax", "setting": "[4]", "value": 120, "unit": "µM"},
      {"measurement": "immunogenicity of Myozyme and Lumizyme", "setting": "[5]", "value": "may significantly reduce the immunogenicity"},
      {"measurement": "Cmax", "setting": "[6]", "value": "~40", "unit": "µM"},
      {"measurement": "physical stability of rhGAA", "setting": "GAA [7]", "value": "significant concentration-dependent increases"},
      {"measurement": "tissue GAA levels", "setting": "GAA [8]", "value": "significant and dose-dependent increases"}
    ]}
  ]
}
